The target in assay [1] is T1, STING (Homo sapiens, UniProt Q86WV6).
T1 construct: endogenous in cells; host or cells: human skin fibroblasts
The experiment in a line: Human FB STING antagonist assay (IFN-a/b release). It counts as cell-based. The note with it: Human skin fibroblasts, 2h pre-treatment, 300 nM GSK STING agonist (CAS number: 2138299-34-8) for 20 h, release of IFN-a/b by HEK-Blue IFN-α/β bioassay. As for the experimental part: STING antagonist activity can be determined by a human fibroblast antagonist assay. For this, human skin fibroblasts are pre-treated for 2h with a serial dilution of the compound, and are then stimulated for 20 hours with 300 nM STING agonist (e.g. from GSK, CAS number: 2138299-34-8). Supernatants are then harvested and assessed for IFN-a/b release, which indicates STING activation. IFN-a/b concentration in the supernatant is determined, e.g. using an IFN-α/β bioassay. IC50 values are calculated using a non-linear regression fitting, variable slope (4 parameters).
Human skin fibroblasts were pre-treated for 2h with a serial dilution of test compound followed by stimulation with mock or 300 nM GSK STING agonist (CAS number: 2138299-34-8). Supernatants were harvested after 20 h of STING agonist stimulation. Release of IFN-a/b was determined using HEK-Blue IFN-α/β bioassay (Invivogen). Cellular viability was assessed using Alamar Blue HS assay. IC50 values were estimated using a non-linear regression fitting, variable slope (4 parameters) in GraphPad Prism 9.3.1.

Assay [2] concerns the target C-terminal domain (CTD) of human STING (Homo sapiens, UniProt Q86WV6). The experiment in a line: STING binding FP assay II (as FP assay I, lower STING concentration). Details: recombinant human STING protein (155-379). The settings on record: 7 nM STING in buffer A, 4 nM fluorescein-labelled STING ligand (Probe 1). Here is the method: The interaction between molecules and the C-terminal domain (CTD) of human STING was evaluated using a competition binding assay. In this assay, recombinant human STING protein (155-379) and a STING binding fluorescent probe were employed. Upon binding of the probe to STING, the rotation of the fluorescent probe is slowed due to the larger molecular size of the protein-bound complex. As a result, emitted light retains its plane of polarization, leading to an increase in fluorescence polarization. Molecules competing for the probe binding site displace the probe, which leads to rapid randomization of the polarization plane of the emitted light and a subsequent decrease in measured fluorescence polarization signal. Change in polarization was measured, allowing a comparative evaluation of the binding affinities of different compounds to the target protein.
The assay was performed in 96-well plates (ThermoFisher, cat.# 237108) containing 100 µl : 10 µL test compound in 10% DMSO and buffer A (150 mM NaCl, 50 mM HEPES pH 7.5, 1 mM DTT) + 90 µL prepared master mix solution of: 4 nM fluorescein-labelled STING ligand (Probe 1; synthesis described above) in buffer A + 0.055% Tween-20 (v/v) and 35 nM STING in buffer A. Post mixing, plates were agitated at 600 rpm and incubated for 20 min at room temperature. Subsequent measurements of the fluorescence polarization signal were made on a BioTek Synergy-H1 plate reader, using a polarization filter; excitation: 485/20 nm, emission: 528/20 nm) with a gain-setting of 75. IC50 values were determined using a standard non-linear regression four-parameter curve fit in Graphpad Prism.
The procedure for STING binding FP assay II is the same as described for STING binding FP assay I, except for a lower STING concentration. In STING binding FP assay II, a concentration of 7 nM STING in buffer A was used.

pIC50: −log10 of the molar value.

By pIC50 is commonly meant the IC50 on a negative log10 scale, so that one unit is a factor of ten.

C-terminal domain (CTD) of human STING, sequence (Q86WV6 155-379): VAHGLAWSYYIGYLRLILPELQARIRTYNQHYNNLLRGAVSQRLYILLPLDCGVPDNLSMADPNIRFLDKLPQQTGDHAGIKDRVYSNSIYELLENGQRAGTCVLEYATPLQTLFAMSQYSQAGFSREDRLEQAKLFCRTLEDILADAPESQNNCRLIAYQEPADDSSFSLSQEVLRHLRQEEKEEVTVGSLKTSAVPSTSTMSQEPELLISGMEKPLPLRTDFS
T1 sequence (Q86WV6 whole entry): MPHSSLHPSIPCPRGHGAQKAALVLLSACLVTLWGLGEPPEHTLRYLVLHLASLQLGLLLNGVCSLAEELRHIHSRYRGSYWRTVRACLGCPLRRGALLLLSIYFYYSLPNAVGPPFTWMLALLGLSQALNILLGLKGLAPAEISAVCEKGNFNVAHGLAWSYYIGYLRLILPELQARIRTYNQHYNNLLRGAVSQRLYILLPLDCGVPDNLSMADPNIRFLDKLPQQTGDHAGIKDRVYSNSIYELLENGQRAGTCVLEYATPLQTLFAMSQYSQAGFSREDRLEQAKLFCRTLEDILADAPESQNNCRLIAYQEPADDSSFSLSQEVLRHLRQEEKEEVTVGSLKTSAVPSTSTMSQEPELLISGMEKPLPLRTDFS

Take `CCOC(=O)COC(CCn1c(NC(=O)c2cc(C)nn2CC)nc2cc(C(N)=O)ccc21)CCn1c(NC(=O)c2cc(C)nn2CC)nc2cc(C(N)=O)ccc21` [Example 1, Ethyl {3-[5-carbamoyl-2-(1-ethyl-3-methyl-5-pyrazolylcarbonylamino)-1H-1,3-benzimidazol-1-yl]-1-{2-[5-carbamoyl-2-(1-ethyl-3-methyl-5-pyrazolylcarbonylamino)-1H-1,3-benzimidazol-1-yl]ethyl}propoxy}acetate]: the pIC50 in assay [1] was 5.49. `CCn1nc(C)cc1C(=O)N=c1n(C)c2cc(C(N)=O)ccc2n1CCC(CCn1c(=NC(=O)c2cc(C)nn2CC)n(C)c2cc(C(N)=O)ccc21)OCC(=O)N1CCN(C(C)=O)CC1` (stereo not drawn) [Example 12, 1-{3-[2-(4-Acetyl-1-piperazinyl)-2-oxoethoxy]-5-{5-carbamoyl-2-[(1-ethyl-3-methyl-5-pyrazolyl)carbonylimino]-3-methyl-2,3-dihydro-1H-1,3-benzimidazol-1-yl}pentyl}-2-[(1-ethyl-3-methyl-5-pyrazolyl)carbonylimino]-3-methyl-2,3-dihydro-1H-1,3-benzimidazole-5-carboxamide]: the values for the pIC50 in assay [1] and in assay [2] were 5.01 and 8.77, respectively. Take `CCn1nc(C)cc1C(=O)N=c1n(C)c2cc(C(N)=O)ccc2n1CCC(CCn1c(=NC(=O)c2cc(C)nn2CC)n(C)c2cc(C(N)=O)ccc21)OCC(=O)N(CCOC)CCOC` (stereo not drawn) [Example 13, 1-(3-{[Bis(2-methoxyethyl)carbamoyl]methoxy}-5-{5-carbamoyl-2-[(1-ethyl-3-methyl-5-pyrazolyl)carbonylimino]-3-methyl-2,3-dihydro-1H-1,3-benzimidazol-1-yl}pentyl)-2-[(1-ethyl-3-methyl-5-pyrazolyl)carbonylimino]-3-methyl-2,3-dihydro-1H-1,3-benzimidazole-5-carboxamide]: the negative-log IC50 (pIC50) was 5.11 in assay [1] and 8.70 in assay [2]. As to `CCn1nc(C)cc1C(=O)N=c1n(C)c2cc(C(N)=O)ccc2n1CCC(CCn1c(=NC(=O)c2cc(C)nn2CC)n(C)c2cc(C(N)=O)ccc21)OCC(=O)N(C(C)C)C(C)C` (stereo not drawn) [Example 21, 1-(3-{[Bis(isopropyl)carbamoyl]methoxy}-5-{5-carbamoyl-2-[(1-ethyl-3-methyl-5-pyrazolyl)carbonylimino]-3-methyl-2,3-dihydro-1H-1,3-benzimidazol-1-yl}pentyl)-2-[(1-ethyl-3-methyl-5-pyrazolyl)carbonylimino]-3-methyl-2,3-dihydro-1H-1,3-benzimidazole-5-carboxamide], the pIC50 in assay [2] is 8.32. Consider `CCn1nc(C)cc1C(=O)N=c1n(C)c2cc(C(N)=O)ccc2n1CCC(CCn1c(=NC(=O)c2cc(C)nn2CC)n(C)c2cc(C(N)=O)ccc21)OCC(=O)Nc1cc(C)[nH]n1` (stereo not drawn) [Example 22, 1-{3-[(N-5-Methyl-3-pyrazolylcarbamoyl)methoxy]-5-{5-carbamoyl-2-[(1-ethyl-3-methyl-5-pyrazolyl)carbonylimino]-3-methyl-2,3-dihydro-1H-1,3-benzimidazol-1-yl}pentyl}-2-[(1-ethyl-3-methyl-5-pyrazolyl)carbonylimino]-3-methyl-2,3-dihydro-1H-1,3-benzimidazole-5-carboxamide], for which the values for the negative-log IC50 (pIC50) in assay [1] and in assay [2] were 5.22 and 7.89, respectively. As for `CCn1nc(C)cc1C(=O)N=c1n(C)c2cc(C(N)=O)ccc2n1CCC(CCn1c(=NC(=O)c2cc(C)nn2CC)n(C)c2cc(C(N)=O)ccc21)OCC(=O)n1nc(N)cc1C` (stereo not drawn) [Example 23, 1-{3-[2-(3-Amino-5-methyl-1-pyrazolyl)-2-oxoethoxy]-5-{5-carbamoyl-2-[(1-ethyl-3-methyl-5-pyrazolyl)carbonylimino]-3-methyl-2,3-dihydro-1H-1,3-benzimidazol-1-yl}pentyl}-2-[(1-ethyl-3-methyl-5-pyrazolyl)carbonylimino]-3-methyl-2,3-dihydro-1H-1,3-benzimidazole-5-carboxamide], in assay [2], the pIC50 is 8.20. The same measure, in the same setting: under `CCn1nc(C)cc1C(=O)N=c1n(C)c2cc(C(N)=O)ccc2n1CCC(CCn1c(=NC(=O)c2cc(C)nn2CC)n(C)c2cc(C(N)=O)ccc21)OCC(=O)n1nc(C)cc1N` (stereo not drawn) [Example 24, 1-{3-[2-(5-Amino-3-methyl-1-pyrazolyl)-2-oxoethoxy]-5-{5-carbamoyl-2-[(1-ethyl-3-methyl-5-pyrazolyl)carbonylimino]-3-methyl-2,3-dihydro-1H-1,3-benzimidazol-1-yl}pentyl}-2-[(1-ethyl-3-methyl-5-pyrazolyl)carbonylimino]-3-methyl-2,3-dihydro-1H-1,3-benzimidazole-5-carboxamide] stands 8.32. Same read-out and setting: under `CCn1nc(C)cc1C(=O)N=c1n(C)c2cc(C(N)=O)ccc2n1CCC(CCn1c(=NC(=O)c2cc(C)nn2CC)n(C)c2cc(C(N)=O)ccc21)OCC(=O)N1CCC[C@H]1c1ccccc1` (stereo partly drawn) [Example 25, 1-(3-{2-[(S)-2-Phenyl-1-pyrrolidinyl]-2-oxoethoxy}-5-{5-carbamoyl-2-[(1-ethyl-3-methyl-5-pyrazolyl)carbonylimino]-3-methyl-2,3-dihydro-1H-1,3-benzimidazol-1-yl}pentyl)-2-[(1-ethyl-3-methyl-5-pyrazolyl)carbonylimino]-3-methyl-2,3-dihydro-1H-1,3-benzimidazole-5-carboxamide] stands 8.34. `CCn1nc(C)cc1C(=O)N=c1n(C)c2cc(C(N)=O)ccc2n1CCC(CCn1c(=NC(=O)c2cc(C)nn2CC)n(C)c2cc(C(N)=O)ccc21)OCC(=O)N1CCC[C@H]1C(=O)N1CCc2cc(OC)ccc2C1` (stereo partly drawn) [Example 26, 1-[3-(2-{(S)-2-[(6-Methoxy-1,2,3,4-tetrahydro-2-isoquinolyl)carbonyl]-1-pyrrolidinyl}-2-oxoethoxy)-5-{5-carbamoyl-2-[(1-ethyl-3-methyl-5-pyrazolyl)carbonylimino]-3-methyl-2,3-dihydro-1H-1,3-benzimidazol-1-yl}pentyl]-2-[(1-ethyl-3-methyl-5-pyrazolyl)carbonylimino]-3-methyl-2,3-dihydro-1H-1,3-benzimidazole-5-carboxamide]: the negative logarithm of the IC50 (pIC50) in assay [1] was 5.85; in assay [2] it was 8.46. Consider `CCn1nc(C)cc1C(=O)N=c1n(C)c2cc(C(N)=O)ccc2n1CCC(CCn1c(=NC(=O)c2cc(C)nn2CC)n(C)c2cc(C(N)=O)ccc21)OCC(=O)N1CCC[C@@H]1c1cc(F)ccc1F` (stereo partly drawn) [Example 27, 1-(3-{2-[(R)-2-(2,5-Difluorophenyl)-1-pyrrolidinyl]-2-oxoethoxy}-5-{5-carbamoyl-2-[(1-ethyl-3-methyl-5-pyrazolyl)carbonylimino]-3-methyl-2,3-dihydro-1H-1,3-benzimidazol-1-yl}pentyl)-2-[(1-ethyl-3-methyl-5-pyrazolyl)carbonylimino]-3-methyl-2,3-dihydro-1H-1,3-benzimidazole-5-carboxamide], for which the negative logarithm of the IC50 (pIC50) in assay [2] was 8.43. For `CCn1nc(C)cc1C(=O)N=c1n(C)c2cc(C(N)=O)ccc2n1CCC(CCn1c(=NC(=O)c2cc(C)nn2CC)n(C)c2cc(C(N)=O)ccc21)OCC(=O)N1CCC[C@H]1c1nnn[nH]1` (stereo partly drawn) [Example 28, 1-(3-{2-[(S)-2-(1H-Tetrazol-5-yl)-1-pyrrolidinyl]-2-oxoethoxy}-5-{5-carbamoyl-2-[(1-ethyl-3-methyl-5-pyrazolyl)carbonylimino]-3-methyl-2,3-dihydro-1H-1,3-benzimidazol-1-yl}pentyl)-2-[(1-ethyl-3-methyl-5-pyrazolyl)carbonylimino]-3-methyl-2,3-dihydro-1H-1,3-benzimidazole-5-carboxamide], the negative logarithm of the IC50 (pIC50) in assay [1] was 5.41; in assay [2], 8.08. On the same counts, the results for `CCNC(=O)COC(CCn1c(=NC(=O)c2cc(C)nn2CC)n(C)c2cc(C(N)=O)ccc21)CCn1c(=NC(=O)c2cc(C)nn2CC)n(C)c2cc(C(N)=O)ccc21` (stereo not drawn) [Example 29, 1-{3-[(N-Ethylcarbamoyl)methoxy]-5-{5-carbamoyl-2-[(1-ethyl-3-methyl-5-pyrazolyl)carbonylimino]-3-methyl-2,3-dihydro-1H-1,3-benzimidazol-1-yl}pentyl}-2-[(1-ethyl-3-methyl-5-pyrazolyl)carbonylimino]-3-methyl-2,3-dihydro-1H-1,3-benzimidazole-5-carboxamide] are 5.28 and 8.15.
